These are literature values, as cited in paper PMC7527728, “CPSF6-Dependent Targeting of Speckle-Associated Domains Distinguishes Primate from Nonprimate Lentiviral Integration” (mBio, 2020).

The test system of data set [1] is HIV-1 capsid hexamers. On the set-up: method as in PMID 25518861. Particulars: more efficiently than the NTD.
The subject of data set [2] is A77V capsid nanotubes. The conditions noted are these: in vitro, as efficiently as WT capsid. The source says: (§1) The 5.2% reduction in genic HIV-1 integration targeting in Jurkat CKD cells was noticeably less than the 22.1% reduction in CKO cells (compare Fig. 4A and Fig. 3A). While the reason for this difference is unclear, it seemed possible that the residual level of CPSF6 protein that persisted in CKD cells (Fig. 2D) could be a contributing factor. We accordingly next mapped integration sites of N74D and A77V capsid mutant viruses in Jurkat T cells. N74D and A77V capsid nanotubes bound CPSF6 ∼5% and 30%, respectively, as efficiently as WT capsid complexes in vitro ([43]).

The test system of data set [3] is N74D capsid nanotubes. Particulars: in vitro.
Excerpt: as §1

Take “CPSF6 peptide: CPSF6 peptide binding HIV-1 capsid hexamers, ref 45”: the “binding to capsid hexamers relative to NTD” value in data set [1] was “approximately 10 -fold”.

Take “CPSF6: cleavage and polyadenylation specificity factor 6”: the “CPSF6 binding relative to WT capsid complexes” value is reported as around 30% in data set [2] and around 5% in data set [3].
